Calls of active or inactive are those of the source. The calls are words filed in the database; no cut-off is given here.
Tests used:
[1] = target: T1, Serine/threonine-protein kinase AKT (Homo sapiens) (UniProt P31751+Q9Y243+P31749); test: Inhibition of Akt signaling pathway in human HT1080 cells assessed as fold change in phosphorylated Akt level at 1 uM incubated for 12 hrs by immunoblot assay (reference value: 1); assay type: cell-based; details: HT-1080
[2] = target: Heat shock protein HSP90 (Homo sapiens) (UniProt P07900+P08238); test: Inhibition of HSP90 chaperone activity in human HeLa cells assessed as reduction in denatured luciferase refolding at 100 uM incubated for 60 mins by luciferase refolding assay; assay type: cell-based
[3] = Antiproliferative activity against human ES2 cells assessed as reduction in cell viability incubated for 72 hrs by MTT assay; assay type: functional, cell-based; details: ES-2, 72 h
SK-MEL-28 = test: Antiproliferative activity against human SK-MEL-28 cells assessed as reduction in cell viability incubated for 72 hrs by MTT assay; assay type: functional, cell-based; details: SK-MEL-28, 72 h
PC-3 = test: Antiproliferative activity against human PC3 cells assessed as reduction in cell viability incubated for 72 hrs by MTT assay; assay type: functional, cell-based; details: PC-3, 72 h
HT-1080 [4] = test: Effect on Akt level in human HT1080 cells assessed as Akt level at 10 uM incubated for 24 hrs by immunoblot assay (reference value: 1); assay type: cell-based; details: ht-1080, 24 h
MCF7 [5] = test: Effect on HSP90 level in human MCF7 cells at 10 uM incubated for 24 hrs by immunoblotting assay (reference value: 1); assay type: ADME, cell-based; details: mcf7, 24 h
[6] = target: T1, Serine/threonine-protein kinase AKT (Homo sapiens); test: Inhibition of Akt signaling pathway in human HT1080 cells assessed as fold change in phosphorylated Akt level at 0.1 uM incubated for 12 hrs by immunoblot assay (reference value: 1); assay type: cell-based; details: HT-1080
[7] = target: T1, Serine/threonine-protein kinase AKT (Homo sapiens); test: Inhibition of Akt signaling pathway in human HT1080 cells assessed as fold change in phosphorylated Akt level at 10 uM incubated for 24 hrs by immunoblot assay (reference value: 1); assay type: cell-based; details: HT-1080
[8] = target: Luciferin 4-monooxygenase (Photinus pyralis) (UniProt P08659); test: Effect on firefly luciferase activity at 100 uM incubated for 60 mins by luciferase assay system
Chain of Luciferin 4-monooxygenase (Photinus pyralis) (P08659 whole entry): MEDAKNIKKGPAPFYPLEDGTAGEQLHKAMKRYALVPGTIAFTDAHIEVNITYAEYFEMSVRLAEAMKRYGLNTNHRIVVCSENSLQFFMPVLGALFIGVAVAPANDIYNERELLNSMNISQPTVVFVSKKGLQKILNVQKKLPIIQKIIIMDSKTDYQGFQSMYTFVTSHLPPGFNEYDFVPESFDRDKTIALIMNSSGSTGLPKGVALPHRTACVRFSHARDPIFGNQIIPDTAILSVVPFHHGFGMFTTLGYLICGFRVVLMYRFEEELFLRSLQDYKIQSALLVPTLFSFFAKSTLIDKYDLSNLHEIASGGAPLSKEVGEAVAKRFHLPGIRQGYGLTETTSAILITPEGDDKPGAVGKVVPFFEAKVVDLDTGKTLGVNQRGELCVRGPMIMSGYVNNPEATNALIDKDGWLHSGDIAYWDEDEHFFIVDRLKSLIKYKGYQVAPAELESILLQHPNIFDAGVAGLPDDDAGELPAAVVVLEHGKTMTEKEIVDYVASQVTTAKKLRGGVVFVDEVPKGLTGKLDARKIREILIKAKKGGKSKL

[9] = target: T1, Serine/threonine-protein kinase AKT (Homo sapiens); test: Inhibition of Akt signaling pathway in human HT1080 cells assessed as fold change in phosphorylated Akt level at 10 uM incubated for 12 hrs by immunoblot assay (reference value: 1); assay type: cell-based; details: HT-1080
A-431 = test: Antiproliferative activity against human A431 cells assessed as reduction in cell viability incubated for 72 hrs by MTT assay; assay type: functional, cell-based; details: A-431, 72 h
NEC8 = test: Antiproliferative activity against human NEC8 cells assessed as reduction in cell viability incubated for 72 hrs by MTT assay; assay type: functional, cell-based; details: NEC8, 72 h
A549 = test: Antiproliferative activity against human A549 cells assessed as reduction in cell viability incubated for 72 hrs by MTT assay; assay type: functional, cell-based; details: A549, 72 h
PANC-1 = test: Antiproliferative activity against human PANC1 cells assessed as reduction in cell viability incubated for 72 hrs by MTT assay; assay type: functional, cell-based; details: PANC-1, 72 h
MCF7 [10] = test: Antiproliferative activity against human MCF7 cells assessed as reduction in cell viability incubated for 72 hrs by MTT assay; assay type: functional, cell-based; details: MCF7, 72 h
HT-29 = test: Antiproliferative activity against human HT-29 cells assessed as reduction in cell viability incubated for 72 hrs by MTT assay; assay type: functional, cell-based; details: HT-29, 72 h
[11] = target: T1, Serine/threonine-protein kinase AKT (Homo sapiens); test: Inhibition of Akt signaling pathway in human HT1080 cells assessed as fold change in phosphorylated Akt level at 0.01 uM incubated for 12 hrs by immunoblot assay (reference value: 1); assay type: cell-based; details: HT-1080
HT-1080 [12] = test: Induction of vacuole formation in human HT1080 cells at 10 uM incubated for 24 hrs; assay type: functional, cell-based
HT-1080 [13] = test: Antiproliferative activity against human HT1080 cells assessed as reduction in cell viability incubated for 72 hrs by MTT assay; assay type: functional, cell-based; details: HT-1080, 72 h
[14] = target: T1, Serine/threonine-protein kinase AKT (Homo sapiens); test: Inhibition of Akt signaling pathway in human HT1080 cells assessed as fold change in phosphorylated 70S6K level at 10 uM incubated for 24 hrs by immunoblot assay (reference value: 1); assay type: cell-based; details: HT-1080
[15] = target: Receptor tyrosine-protein kinase erbB-2 (Homo sapiens) (UniProt P04626); test: Induction of HER2 destabilization in human MCF7 cells assessed as half life at 10 uM measured up to 24 hrs by immunoblotting assay (Rvb > 24 hrs); assay type: cell-based
Chain of Receptor tyrosine-protein kinase erbB-2 (Homo sapiens) (P04626 whole entry): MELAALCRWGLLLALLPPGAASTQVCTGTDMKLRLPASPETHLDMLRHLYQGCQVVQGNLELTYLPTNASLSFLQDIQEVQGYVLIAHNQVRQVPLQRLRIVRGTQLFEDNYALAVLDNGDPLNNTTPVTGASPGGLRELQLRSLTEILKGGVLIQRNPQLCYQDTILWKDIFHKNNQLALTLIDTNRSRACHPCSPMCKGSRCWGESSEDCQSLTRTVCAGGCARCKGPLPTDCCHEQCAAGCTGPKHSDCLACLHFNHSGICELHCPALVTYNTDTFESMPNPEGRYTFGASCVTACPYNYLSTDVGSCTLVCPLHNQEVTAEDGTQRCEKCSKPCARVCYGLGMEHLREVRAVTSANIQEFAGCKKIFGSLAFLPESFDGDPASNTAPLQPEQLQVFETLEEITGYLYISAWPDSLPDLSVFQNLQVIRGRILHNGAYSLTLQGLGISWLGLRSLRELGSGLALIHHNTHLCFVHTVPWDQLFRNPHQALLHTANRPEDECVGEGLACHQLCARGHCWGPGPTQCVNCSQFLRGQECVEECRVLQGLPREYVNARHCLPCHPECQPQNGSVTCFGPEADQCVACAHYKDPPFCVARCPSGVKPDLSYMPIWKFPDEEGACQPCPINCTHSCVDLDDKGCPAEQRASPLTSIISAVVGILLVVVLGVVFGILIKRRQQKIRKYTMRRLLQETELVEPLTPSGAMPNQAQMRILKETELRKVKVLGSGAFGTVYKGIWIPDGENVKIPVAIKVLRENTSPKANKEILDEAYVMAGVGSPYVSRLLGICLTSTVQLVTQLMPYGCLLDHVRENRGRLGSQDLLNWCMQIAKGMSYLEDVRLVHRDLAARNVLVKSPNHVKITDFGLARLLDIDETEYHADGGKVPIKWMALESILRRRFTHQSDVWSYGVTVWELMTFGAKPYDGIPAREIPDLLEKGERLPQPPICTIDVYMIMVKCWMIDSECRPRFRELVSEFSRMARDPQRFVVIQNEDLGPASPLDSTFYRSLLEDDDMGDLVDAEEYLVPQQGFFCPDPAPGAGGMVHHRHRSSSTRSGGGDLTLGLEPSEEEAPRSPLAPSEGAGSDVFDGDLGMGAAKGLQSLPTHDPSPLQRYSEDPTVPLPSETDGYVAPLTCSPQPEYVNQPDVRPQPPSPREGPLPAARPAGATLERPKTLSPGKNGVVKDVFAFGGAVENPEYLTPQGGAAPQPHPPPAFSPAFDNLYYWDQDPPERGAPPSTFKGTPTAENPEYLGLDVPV

[16] = target: T1, Serine/threonine-protein kinase AKT (Homo sapiens); test: Inhibition of Akt signaling pathway in human HT1080 cells assessed as reduction in phosphorylated Akt level incubated for 12 hrs by immunoblot assay; assay type: cell-based; details: HT-1080
MCF7 [17] = test: Effect on HER2 mRNA expression in human MCF7 cells at 10 uM incubated for 24 hrs by qRT-PCR analysis; assay type: functional, cell-based

T1 sequence (P31749 whole entry, looked up): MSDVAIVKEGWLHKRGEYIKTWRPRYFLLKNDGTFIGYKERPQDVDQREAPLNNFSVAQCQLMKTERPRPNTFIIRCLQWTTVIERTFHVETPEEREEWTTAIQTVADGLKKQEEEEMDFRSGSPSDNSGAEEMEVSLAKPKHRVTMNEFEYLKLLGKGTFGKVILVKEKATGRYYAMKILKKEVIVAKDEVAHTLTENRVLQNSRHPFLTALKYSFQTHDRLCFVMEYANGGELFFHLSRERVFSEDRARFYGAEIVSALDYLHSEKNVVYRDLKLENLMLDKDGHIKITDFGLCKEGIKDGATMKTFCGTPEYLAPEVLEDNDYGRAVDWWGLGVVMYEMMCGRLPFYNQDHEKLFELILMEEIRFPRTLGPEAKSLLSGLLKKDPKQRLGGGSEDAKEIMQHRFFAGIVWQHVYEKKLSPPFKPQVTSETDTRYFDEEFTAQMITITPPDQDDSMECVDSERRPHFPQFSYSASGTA
T1 sequence (P31751 whole entry, looked up): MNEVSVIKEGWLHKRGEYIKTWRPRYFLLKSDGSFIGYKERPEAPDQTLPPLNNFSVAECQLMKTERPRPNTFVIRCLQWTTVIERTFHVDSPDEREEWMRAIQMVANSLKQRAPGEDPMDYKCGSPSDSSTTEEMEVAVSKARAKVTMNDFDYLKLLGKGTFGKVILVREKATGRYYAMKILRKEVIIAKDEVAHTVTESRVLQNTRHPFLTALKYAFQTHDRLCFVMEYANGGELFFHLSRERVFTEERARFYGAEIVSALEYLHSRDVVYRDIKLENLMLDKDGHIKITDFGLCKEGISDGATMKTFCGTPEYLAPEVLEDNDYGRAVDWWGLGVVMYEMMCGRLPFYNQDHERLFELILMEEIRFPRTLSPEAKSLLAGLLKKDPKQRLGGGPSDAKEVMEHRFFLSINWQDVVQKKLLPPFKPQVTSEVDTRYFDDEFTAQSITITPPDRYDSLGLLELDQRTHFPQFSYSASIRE
T1 sequence (Q9Y243 whole entry, looked up): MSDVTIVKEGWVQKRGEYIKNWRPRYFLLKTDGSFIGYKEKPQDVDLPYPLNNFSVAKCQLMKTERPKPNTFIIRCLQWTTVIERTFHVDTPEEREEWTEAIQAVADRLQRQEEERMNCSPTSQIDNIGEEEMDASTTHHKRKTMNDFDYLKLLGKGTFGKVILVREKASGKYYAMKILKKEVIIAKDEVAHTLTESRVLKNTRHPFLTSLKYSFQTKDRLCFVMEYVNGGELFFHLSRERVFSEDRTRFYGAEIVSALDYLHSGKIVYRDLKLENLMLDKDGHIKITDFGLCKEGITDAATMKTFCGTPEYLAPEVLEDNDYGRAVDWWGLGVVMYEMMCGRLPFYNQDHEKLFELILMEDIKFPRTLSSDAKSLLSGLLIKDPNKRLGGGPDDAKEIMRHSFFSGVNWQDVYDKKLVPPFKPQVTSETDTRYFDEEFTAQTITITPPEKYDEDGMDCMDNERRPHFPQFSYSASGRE

What does the source list for `C=C1CC[C@H]2O[C@@]2(C)[C@H](OC(=O)C=C(C)C)/C=C/[C@@](C)(CCC=C(C)C)CC1=O`?
fold change (FC) [1]: 0.63; inhibition [2]: Active; IC50 [3]: 4.3 µM; IC50 (SK-MEL-28): 0.97 µM; IC50 (PC-3): 4.3 µM; fold change (FC) (HT-1080 [4]): 0.8; fold change (FC) (MCF7 [5]): 0.98; fold change (FC) [6]: 0.8; fold change (FC) [7]: 0.11; Activity [8]: inactive; fold change (FC) [9]: 0.38; IC50 (A-431): 0.89 µM; IC50 (NEC8): 3 µM; IC50 (A549): 4.4 µM; IC50 (PANC-1): 3.5 µM; IC50 (MCF7 [10]): 3.5 µM; IC50 (HT-29): 2 µM; fold change (FC) [11]: 0.99; Activity (HT-1080 [12]): Active; IC50 (HT-1080 [13]): 1.2 µM; fold change (FC) [14]: 0.08; T1/2 [15]: 15 h; inhibition [16]: Dose-dependent effect; Activity (MCF7 [17]): inactive

Which “fold change (FC)” value (MCF7 [5]) does the source give for `COC1=C2C[C@@H](C)C[C@H](OC)[C@H](O)[C@@H](C)/C=C(\C)[C@H](OC(N)=O)[C@@H](OC)/C=C\C=C(/C)C(=O)NC(=CC1=O)C2=O` [GELDANAMYCIN] here?
Its value is 1.01.

What about the Activity (MCF7 [17]) of the same molecule?
Its Activity is “inactive”.

Which IC50 [3] does the source give for `C=C1CC[C@H]2O[C@@]2(C)[C@H](OC(=O)C=C(C)C)/C=C/[C@@](C)(CCC=C(C)C)C[C@H]1O` here?
Its IC50 is greater than 20 µM.

And the IC50 (SK-MEL-28)?
Its IC50 is greater than 20 µM.

And the IC50 (PC-3)?
The IC50 was greater than 20 µM.

What about the “fold change (FC)” value (HT-1080 [4]) of the same molecule?
The value was 0.98.

What about the fold change (FC) [7] of the same molecule?
The fold change (FC) was 0.95.

What about the IC50 (A-431) of the same molecule?
Its IC50 is greater than 20 µM.

What about the IC50 (NEC8) of the same molecule?
Its IC50 is 11 µM.

What about the IC50 (A549) of the same molecule?
The IC50 was greater than 20 µM.

And the IC50 (PANC-1)?
The IC50 was greater than 20 µM.

And the IC50 (MCF7 [10])?
Its IC50 is greater than 20 µM.

And the IC50 (HT-29)?
Its IC50 is greater than 20 µM.

What about the Activity (HT-1080 [12]) of the same molecule?
Its Activity is “inactive”.

What about the IC50 (HT-1080 [13]) of the same molecule?
Its IC50 is greater than 20 µM.

What about the fold change (FC) [14] of the same molecule?
Its fold change (FC) is 1.1.

What does the source list for `CC(C)=CCC[C@]1(C)/C=C/[C@@H](OC(=O)C=C(C)C)[C@]2(C)O[C@@H]2CC/C(C=O)=C\C1`?
IC50 [3]: 7.5 µM; IC50 (SK-MEL-28): > 20 µM; IC50 (PC-3): > 20 µM; fold change (FC) (HT-1080 [4]): 0.85; fold change (FC) [7]: 1.05; IC50 (A-431): 13 µM; IC50 (NEC8): 12 µM; IC50 (A549): 11 µM; IC50 (PANC-1): 2.7 µM; IC50 (MCF7 [10]): 12 µM; IC50 (HT-29): 7.8 µM; Activity (HT-1080 [12]): inactive; IC50 (HT-1080 [13]): 18 µM; fold change (FC) [14]: 1.11

For `C=C(I)CC[C@H]1O[C@@]1(C)[C@@H](/C=C/[C@](C)(CC=O)CCC=C(C)C)OC(=O)C=C(C)C`, which IC50 [3] is on record?
Its IC50 is greater than 20 µM.

And the IC50 (SK-MEL-28)?
Its IC50 is greater than 20 µM.

And the IC50 (PC-3)?
The IC50 was greater than 20 µM.

And the “fold change (FC)” value (HT-1080 [4])?
The value was 0.92.

What about the fold change (FC) [7] of the same molecule?
Its fold change (FC) is 0.91.

And the IC50 (A-431)?
Its IC50 is 20 µM.

And the IC50 (NEC8)?
Its IC50 is 11 µM.

And the IC50 (A549)?
Its IC50 is greater than 20 µM.

And the IC50 (PANC-1)?
The IC50 was 5.1 µM.

And the IC50 (MCF7 [10])?
The IC50 was greater than 20 µM.

What about the IC50 (HT-29) of the same molecule?
The IC50 was greater than 20 µM.

What about the Activity (HT-1080 [12]) of the same molecule?
Its Activity is “inactive”.

What about the IC50 (HT-1080 [13]) of the same molecule?
Its IC50 is 18 µM.

And the fold change (FC) [14]?
The fold change (FC) was 1.15.

For `CC(C)=CCC[C@]1(C)/C=C/[C@@H](OC(=O)C=C(C)C)[C@]2(C)O[C@@H]2CC/C(CO)=C\C1`, which IC50 [3] is on record?
The IC50 was 2.9 µM.

And the IC50 (SK-MEL-28)?
Its IC50 is greater than 20 µM.

And the IC50 (PC-3)?
The IC50 was greater than 20 µM.

And the “fold change (FC)” value (HT-1080 [4])?
Its value is 1.08.

What about the fold change (FC) [7] of the same molecule?
The fold change (FC) was 0.98.

What about the IC50 (A-431) of the same molecule?
The IC50 was 16 µM.

What about the IC50 (NEC8) of the same molecule?
Its IC50 is 8.4 µM.

And the IC50 (A549)?
Its IC50 is 8.3 µM.

And the IC50 (PANC-1)?
The IC50 was 0.025 µM.

And the IC50 (MCF7 [10])?
The IC50 was 15 µM.

What about the IC50 (HT-29) of the same molecule?
The IC50 was 6.8 µM.

And the Activity (HT-1080 [12])?
Its Activity is “inactive”.

And the IC50 (HT-1080 [13])?
The IC50 was greater than 20 µM.

What about the fold change (FC) [14] of the same molecule?
The fold change (FC) was 1.2.

From ChEMBL document CHEMBL4610012, “Identification of vibsanin A analog as a novel HSP90 inhibitor” (Bioorg Med Chem, 2020)
